The text below walks through data of patent US12642784B2, “ANAVEX2-73 for the treatment of genetic neurodevelopmental disorders” (ANAVEX LIFE SCIENCES CORP., priority 2019, dated 2026).

For data set [1], the system named is subject diagnosed with Rett Syndrome. Kind of data set: Example 1: daily liquid formulation in a subject with Rett Syndrome, follow-up questionnaire. The note with it: 5 mL of 0.2 mg/mL liquid formulation daily, total daily dose 1 mg. The class given is in vivo, human. The protocol:
A subject diagnosed with Rett Syndrome was daily administered 5 mL of a liquid formulation containing A2-73 at a concentration of 0.2 mg/mL, for a total daily dose of 1 mg of […]2-73.

The test system of data set [2] is female subjects diagnosed with Rett Syndrome. Kind of data set: Example 5: 7-week treatment of Rett Syndrome subjects, RSBQ and CGI-I. The class given is in vivo, human. From the text: One useful measure of improvement for one or more symptoms of a genetic neurodevelopmental disorder may be determined using a behavioral questionnaire that interrogates a primary caregiver of a subject at multiple time points during a course of treatment, regarding multiple behavioral indicators of the disorder. For example, a Rett Syndrome Behavior Questionnaire (RSBQ) may comprise multiple, e.g., at least five but optionally 10 or more, such as 12, 15, 20, 25, 30, 35, 40, 45 or 50 or more behavioral indicators which ask for a caregiver's observations of the subject regarding the frequency of specific episodes or occurrences of each indicator. […]
Another useful measurement for one or more symptoms of a genetic neurodevelopmental disorder is a Clinical Global Impression-Improvement scale (CGI-I). This scale measures the improvement or worsening of the subject's condition relative to a baseline state before administration of the dosage form comprising a therapeutically acceptable amount of ANAVEX2-73, as assessed by one or more healthcare professionals. […]
(§1) For efficacy, the following parameters were measured in the female subjects: Rett Syndrome Behavior Questionnaire (RSBQ), Clinical Global Impressions (CGI-I), hand behaviors (RSBQ), breathing problems (RSBQ), waking during sleep (RSBQ), and glutamate biomarker, and GABA biomarkers.
(§2) Evaluation of the efficacy was measured as a comparison from baseline (week 0), week 4, and to end of treatment (week 7). Blood plasma samples were analyzed at week 0 and at week 7 to measure the levels of glutamate and GABA biomarkers. […]

The test system of data set [3] is glutamate and GABA biomarkers. Kind of data set: Example 5: plasma glutamate and GABA biomarkers. The note with it: Week 0 vs. Week 7; Wilcoxon Z=−1.992, p (2-tailed)=0.046. The class given is in vivo, human.
Source text: In one aspect, the method further comprises measuring, or having measured or obtained a baseline plasma glutamate and/or gamma aminobutyric acid (GABA) level in the subject prior to treatment with ANAVEX2-73 as described herein, and measuring or having measured or obtained at least a second plasma glutamate and/or gamma aminobutyric acid (GABA) level following a period of treatment with ANAVEX2-73 as described herein. Measurement of a plasma glutamate and/or gamma aminobutyric acid (GABA) level comprises withdrawing a whole blood sample from the subject, separating the blood plasma from remaining whole blood components such as by centrifuging the sample, isolating the blood plasma, and measuring the amount of glutamate and/or gamma aminobutyric acid (GABA) in the blood plasma using any one of several techniques known in the art. […]
as §1, §2

Data set [4] deals with subject, diagnosed with Rett Syndrome. Nature of the data set: Example 6: liquid formulation in a subject with Rett Syndrome. The class given is in vivo, human. Particulars: 1 mL of liquid formulation (0.2 mg/mL). The protocol: A subject, diagnosed with Rett Syndrome is administered 1 mL of a liquid formulation (0.2 mg/mL).
The next data set concerns healthy male volunteers. Particulars: cited from earlier work.
Data set [5] is classed as physicochemical. An excerpt:
Dosage formulations used in the disclosed methods comprise a therapeutically effective amount of ANAVEX2-73, the crystalline HCl salt of tetrahydro-N,N-dimethyl-2,2-diphenyl-3-furanmethanamine, or tetrahydro-N,N-dimethyl-2,2-diphenyl-3-furanmethanamine hydrochloride (IUPAC name: 1-(2,2-diphenyloxolan-3-yl)-N,N-dimethylmethanamine hydrochloride). […] Thus ANAVEX2-73 (used herein to refer to the HCl salt or the free base) is highly amenable to incorporation in the dosage formulations disclosed herein. For example, ANAVEX2-73 as either the HCl salt or the free base has a relatively low molecular weight (<400 Da), and is thus well suited for transmucosal or transdermal delivery, or rapid oral delivery. ANAVEX2-73 has a pKa around 8-9, which also makes it well-suited for transmucosal delivery. Therapeutically effective doses of ANAVEX2-73 are well suited for various thin film formulations, including oral and transdermal thin film formulations.

Where [6] appears, read: single oral dose, healthy male volunteers.

Take `CN(C)CC1CCOC1(c1ccccc1)c1ccccc1.Cl` (centres unmarked) [ANAVEX2-73, tetrahydro-N,N-dimethyl-2,2-diphenyl-3-furanmethanamine hydrochloride]: the “motor skills and cognition according to follow-up questionnaire” value in data set [1] was “improvement”. Besides, the “improvement in the RSBQ” value in data set [2] (all six subjects, week 0 to week 7, Wilcoxon Z=−2.207, p (2-tailed)=0.027) was “over 30%”. Moreover, the “RSBQ and CGI-I after 7 weeks” value in data set [2] (correlated, p=0.003) is recorded as “reduction”. In addition, the “parameters measured (FIG. 1, FIG. 2A-D, FIG. 3A-E)” value in data set [2] (orally administered liquid formulation, 7 weeks) is “vast improvement”. Also, the “levels of glutamate biomarker in plasma” value in data set [3] is given as “decreased significantly”. Moreover, in data set [4], the CGI-I index result is given as “improvement” and the “Rett Syndrome Behavior Questionnaire (RSBQ)” value is listed as “improvement”. Moreover, in the data set with healthy male volunteers (single ascending oral dose, 22 healthy male volunteers), the serious adverse events result was “No serious adverse events”. Also, in the data set with healthy male volunteers (setting [6]), the “maximum tolerable dose (MTD)” value is given as 55 mg and the “minimum intolerable dose (MID)” value is given as 60 mg.
As for `CN(C)CC1CCOC1(c1ccccc1)c1ccccc1` (centres unmarked) [free base form of ANAVEX2-73, tetrahydro-N,N-dimethyl-2,2-diphenyl-3-furanmethanamine], the “solubility in organic solvents” value in data set [5] is given as “soluble in almost all organic solvents”.
